Source: patent publication USRE47437E1, “Prolyl hydroxylase inhibitors and methods of use” (Akebia Therapeutics, Inc., priority 2015, dated 2019)

Tests used:
EPO = assay: Mouse serum EPO assay (mouse ischemic hindlimb study); format: in vivo; settings: versus vehicle; after oral dosing; FIG. 2
Protocol: (§1) Mouse Ischemic Hindlimb Study
(§2) All animal work is conducted in accordance with the Guide for the Care and Use of Laboratory Animals (National Academy of Sciences; Copyright© 1996) and the Institutional Animal Care and Use Committee guidelines at Procter and Gamble Pharmaceuticals. We studied 9-10 week old male C57Bl/6 mice from Charles River Laboratory (Portage, Mich.). The mice are orally dosed with vehicle (aqueous carbonate buffer, 50 mM; pH 9.0) or compound 1 in vehicle at 50 mg/kg or 100 mg/kg. The animals are dosed three times: day 1 at 8 am and 5 pm, day 2 at 8 am. One hour after the first dose, unilateral arterial ligation is performed under anesthesia using isoflurane. The femoral artery is ligated proximal to the origin of the popliteal artery. The contralateral limb underwent a sham surgical procedure. Ligation is performed in an alternating fashion between right and left hindlimbs. Two hours after 8 am dosing on day 2, we obtained blood by ventricular stick while the mice are anesthetized with isoflurane. Serum samples for EPO analysis are obtained using gel clot serum separation tubes. Heart, liver, and gastrocnemius muscles are harvested, snap-frozen in liquid nitrogen, and stored in −80° C. until use.
The mouse serum EPO is detected using Mouse Quantikine Erythropoietin ELISA kit from R&D Systems according to manufacturer's instructions.

HIF-1α = assay: Mouse tissue HIF Western blot analysis; format: in vivo; settings: mouse liver; FIG. 1
Protocol: as §1, §2
Mouse Tissue HIF Western Blot Analysis
Tissues from mice stored at −80° C. are powdered with mortar and pestle chilled with liquid nitrogen. […]

O=C(O)CNC(=O)c1ncc(-c2cccc(Cl)c2)cc1O [{[5-(3-Chlorophenyl)-3-hydroxypyridine-2-carbonyl]amino}-acetic acid]
erythropoietin level in mouse serum (EPO): elevated versus vehicle | stabilization of HIF-1α, immunoblot analysis of nuclear extracts (HIF-1α): stabilization of HIF-1α in mouse liver
